The test system of assay [1] is Proteus vulgaris IFO 3988. In words: In vitro antibacterial activity (MIC), Japan Society of Chemotherapy Standard. The format is cell-based. The following applies: IFO3988, inoculated cells 10⁶ cells/ml. Put shortly: (§1)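 Inoculum 10⁶ cells/ml; JSC standard MIC, µg/ml read-out; 10% horse blood added to medium for designated strains.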
The subject of assay [2] is S. epidermidis ATCC 12228. Described as above. Particulars: Staphylococcus epidermidis, ATCC12228; inoculated cells 10⁶ cells/ml. The format is cell-based. Put shortly: as §1
The subject of assay [3] is Pseudomonas aeruginosa IFO 12582. Described as above. The format is cell-based. Particulars: IFO12582, inoculated cells 10⁶ cells/ml. A digest of the protocol:
as §1

Assay [4] concerns Serratia marcescens IFO 12648. Described as above. The format is cell-based. The following applies: IFO12648, inoculated cells 10⁶ cells/ml. A digest of the protocol:
as §1

Another assay relates to E. faecium EFMY-207. The description is as above. The format is cell-based. The following applies: Enterococcus faecium, EFMY207; quinolone resistant bacteria; inoculated cells 10⁶ cells/ml. Put shortly: as §1
The next assay relates to S. aureus Smith. Description: Protection of mice from experimental infection. The format is in vivo. The following applies: male mice; intraperitoneal inoculation 2.8×10⁶ cells/mouse (123×LD₅₀); oral administration one hour after inoculation; survival ratio at 7 days, probit method. The protocol:
(§2) Experimental infection was caused by intraperitoneal inoculation of respective bacteria to male mice. One hour after the inoculation, a test compound was orally administered to the mice. The therapeutic effect of each test compound was evaluated by reference to the 50% effective dose (ED₅₀) which was based on the survival ratio at 7 days after the administration according to the probit method [Proc. Soc. Exp. Med., Vol. 57, p 261-264 (1944)]. The minimum inhibitory concentration (MIC) of the infectious bacteria used was also determined. […]

Another assay has as its system S. aureus MRSA Y-238. In words: Protection of mice from experimental infection. The format is in vivo. The following applies: oral administration one hour after inoculation, survival ratio at 7 days. The protocol: as §2
Another assay concerns E. coli KC-14. In words: Protection of mice from experimental infection. The format is in vivo. Particulars: oral administration one hour after inoculation, survival ratio at 7 days. Here is the method:
as §2

SMILES strings stand for the structures. ≈ marks a conversion by molar mass, not a printed value.

By MIC is commonly meant the smallest concentration in the dilution series that meets the test's criterion for growth inhibition. Turning to `CC1COc2c(N3CCN(C)CC3)c(F)cc3c(=O)c(C(=O)O)cn1c23` (stereo not shown) [Comp. Ex. 2, 9-fluoro-2,3-dihydro-3-methyl-10-(4-methyl-1-piperazinyl)-7-oxo-7H-pyrido [1. 2. 3-de) [1.4] benzoxazine-6-carboxylic acid, reference compound], the MIC in assay [1] amounted to 0.1 µg/mL (≈ 0.277 µM); in assay [2], 0.2 µg/mL (≈ 0.553 µM); in assay [3], 1.56 µg/mL (≈ 4.32 µM); in assay [4], 0.2 µg/mL (≈ 0.553 µM); with E. faecium EFMY-207, 100 µg/mL (≈ 277 µM). Also, the “ED₅₀ (mg/mouse) (95% confidence limit)” value with S. aureus Smith is on record as 0.208(0.137-0.344) mg/mouse; in the assay on S. aureus MRSA Y-238 (Table 3-1: male mice, intraperitoneal inoculation 7.5×10⁶ cells/mouse (185×LD₅₀)), over 16 mg/mouse; with S. aureus MRSA Y-238 (Table 3-2: male mice, intraperitoneal inoculation 7.5×10⁵ cells/mouse (185×LD₅₀)), over 16 mg/mouse; in the assay with E. coli KC-14 (Table 3-1: male mice, intraperitoneal inoculation 5.0×10⁶ cells/mouse (744×LD₅₀)), 0.012(0.009-0.018) mg/mouse; in the assay on E. coli KC-14 (Table 3-2: male mice, intraperitoneal inoculation (744×LD₅₀)), 0.012(0.009-0.018) mg/mouse.

These data come from EP0677522A1, “8-METHOXYQUINOLONECARBOXYLIC ACID DERIVATIVE” (priority 1992, dated 1994).
